Patent US11760758B2 (The Trustees of Columbia University in the City of New York, priority 2018, dated 2023)
Where two headings read alike, the source gives them in different places.

Tests used:
human MOR [1] = target: T1, human MOR (Homo sapiens, UniProt P35372); assay: BRET functional assay for G protein activation at hMOR; type: cell-based; conditions: for Agonist activity at hMOR (in words): compared to DAMGO
T1 construct: host or cells: HEK-293T

mouse MOR [2] = target: T2, mouse MOR (Mus musculus, UniProt P42866); assay: Radioligand competition binding ([125I]BNtxA), CHO membranes, MOR; conditions: for Ki: mean +/- SE, n = 3, CHO transfected with mouse opioid receptors
mouse DOR = target: T3, mouse DOR (Mus musculus, UniProt P32300); assay: Radioligand competition binding ([125I]BNtxA), CHO membranes, DOR; conditions: for Ki: mean +/- SE, n = 3, CHO transfected with mouse opioid receptors
T3 construct: expressed in transfected cells; membranes

mouse KOR = target: T4, mouse KOR (Mus musculus, UniProt P33534); assay: Radioligand competition binding ([125I]BNtxA), CHO membranes, KOR; conditions: for Ki: mean +/- SE, n = 3, CHO transfected with mouse opioid receptors
T4 construct: expressed in transfected cells; membranes

mouse MOR [3] = target: T2, mouse MOR; assay: cAMP sensor CAMYEL functional assay at mMOR; type: cell-based; set-up: host or cells: HEK-293T; conditions: for Agonist activity at mMOR (in words): mMOR CAMYEL assay
human MOR [4] = target: T1, human MOR; conditions: Kruegel, et al. 2016; cited from earlier work
[5] = Table 2, MG-EG series, hMOR G protein BRET, normalized to DAMGO Emax = 100%
[6] = Table 3, 7-OH series, hMOR G protein BRET, normalized to DAMGO Emax = 100%
[7] = EC50 (nM), Table 1, mitragynine series, hMOR G protein BRET, 95% confidence limits in brackets
[8] = Table 1, mitragynine series, hMOR G protein BRET, normalized to DAMGO Emax = 100%

SMILES | Emax (human MOR [1]; [5]) [%] | Agonist activity at hMOR (in words) (human MOR [1]; hMOR G protein BRET) | Emax (human MOR [1]; [6]) [%] | Ki (mouse MOR [2]) [nM] | Ki (mouse DOR) [nM] | Ki (mouse KOR) [nM] | Emax (mouse MOR [3]) [%] | Emax (human MOR [1]; [8]) [%] | other results
CC[C@@H]1CN2CC[C@@]34OCCO[C@@]3(Nc3cc(Br)cc(OC)c34)[C@@H]2C[C@@H]1/C(=C\OC)C(=O)OC [Compound 4, 11-bromo-MG-EG] | < 20 | negligible agonist activity |  |  |  |  |  |  | 
CC[C@@H]1CN2CC[C@@]3(O)C(=Nc4cc(Cl)cc(OC)c43)[C@@H]2C[C@@H]1/C(=C\OC)C(=O)OC [Compound 25, 11-chloro-7-OH] |  | agonist activity was abolished | < 20 | 27.1 ± 1.12 | 47.2 ± 2.36 | 30.6 ± 11.3 | < 20 |  | Agonist activity at mMOR (in words) (mouse MOR [3]): not agonists
CC[C@@H]1CN2CC[C@@]34OCCO[C@@]3(Nc3cc(O)cc(OC)c34)[C@@H]2C[C@@H]1/C(=C\OC)C(=O)OC [Compound 6, 11-hydroxy-MG-EG] |  |  |  |  |  |  |  |  | EC50 (human MOR [1]): 11.3 nM; Emax (human MOR [1]): 67.4%
CC[C@@H]1CN2CC[C@@]34OCCO[C@@]3(Nc3cc(Cl)cc(OC)c34)[C@@H]2C[C@@H]1/C(=C\OC)C(=O)OC [Compound 3, C11-Chloromitragynine-ethylene glycol adduct] | < 20 | negligible agonist activity |  |  |  |  |  |  | 
CC[C@@H]1CN2CC[C@@]34OCCO[C@@]3(Nc3cc(F)cc(OC)c34)[C@@H]2C[C@@H]1/C(=C\OC)C(=O)OC [Compound 2, 11-Fluoromitragynine-ethylene glycol adduct] | < 20 | negligible agonist activity |  |  |  |  |  |  | 
CC[C@@H]1CN2CCc3c([nH]c4cc(Cl)cc(OC)c34)[C@@H]2CC1/C(=C\OC)C(=O)OC (stereo partly shown) [Compound 14, 11-Chloromitragynine] |  |  |  |  |  |  |  | 33.4 | EC50 (human MOR [1]; [7]): 327 nM
CC[C@@H]1CN2CCc3c([nH]c4cccc(OC)c34)[C@@H]2C[C@@H]1/C(=C\OC)C(=O)OC [Compound 12, mitragynine, reference compound] |  |  |  |  |  |  |  | 26.5 | Agonist activity at hMOR (in words), previously shown (human MOR [4]): partial agonist
CC[C@@H]1CN2CC[C@@]34OCCO[C@@]3(Nc3cccc(OC)c34)[C@@H]2C[C@@H]1/C(=C\OC)C(=O)OC [Compound 1, mitragynine-ethylene glycol adduct, reference compound] | 56.2 | partial agonist |  |  |  |  |  |  | EC50 (human MOR [1]; EC50 (nM), Table 2, MG-EG series, hMOR G protein BRET, 95% confidence limits in brackets): 14.8 nM
CC[C@@H]1CN2CC[C@@]3(O)C(=Nc4cc(F)cc(OC)c43)[C@@H]2C[C@@H]1/C(=C\OC)C(=O)OC [Compound 24, 11-Fluoro-7-hydroxymitragynine] |  |  | 47 | 13.7 ± 1.01 | 35.8 ± 2.01 | 21 ± 3.26 | 63.8 |  | EC50 (human MOR [1]; EC50 (nM), Table 3, 7-OH series, hMOR G protein BRET, 95% confidence limits in brackets): 3.98 nM; Gain in affinity at mMOR relative to parent 7-OH, 23 (mouse MOR [2]; ratio of affinity vs 7-OH (23)): approximately 2 fold; Affinity for DOR relative to 7-OH, 23 (mouse DOR; ratio of affinity vs 7-OH (23)): > 2 fold; Affinity at KOR relative to parent compound 23 (mouse KOR; ratio of affinity vs 7-OH (23)): six times greater; EC50 (mouse MOR [3]; Table 5, 7-OH series, mMOR CAMYEL cAMP assay, 95% confidence limits in brackets, read-out: EC50): 15.1 nM
CC[C@@H]1CN2CC[C@@]3(O)C(=Nc4cc(Br)cc(OC)c43)[C@@H]2C[C@@H]1/C(=C\OC)C(=O)OC [Compound 26, 11-bromo-7-OH] |  | agonist activity was abolished | < 20 | 32.4 ± 1.42 | 57.7 ± 6.66 | 81.1 ± 7.11 | < 20 |  | Agonist activity at mMOR (in words) (mouse MOR [3]): not agonists
CC[C@@H]1CN2CC[C@@]3(O)C(=Nc4cccc(OC)c43)[C@@H]2C[C@@H]1/C(=C\OC)C(=O)OC [Compound 23, 7-hydroxymitragynine, reference compound] |  |  | 88 | 21.4 ± 0.81 | 88.5 ± 9.86 | 119 ± 2.14 | 92.4 |  | EC50 (mouse MOR [3]): 13 nM
CC[C@@H]1CN2CCc3c([nH]c4cc(F)cc(OC)c34)[C@@H]2C[C@@H]1/C(=C\OC)C(=O)OC [Compound 13, 11-fluoro-MG] |  |  |  |  |  |  |  | 49 | EC50 (human MOR [1]; [7]): 81.5 nM
CC[C@@H]1CN2CCc3c([nH]c4cc(Br)cc(OC)c34)[C@@H]2C[C@@H]1/C(=C\OC)C(=O)OC [Compound 15, 11-bromo-MG] |  | no/negligible agonist activity |  |  |  |  |  | < 20 | 
